Laboratory results reported in ChEMBL document CHEMBL5579802, “Identification of 3,4-dihydropyrimido[4,5-d]pyrimidin-2(1H)-one scaffolds as potent Lck inhibitors as anti-cancer agents” (Bioorg Med Chem Lett, 2024).

Columns and labels:
MCF7 = experiment: Antiproliferative activity against human MCF7 cells; format: functional
UACC-257 = experiment: Antiproliferative activity against human UACC-257 cells; format: functional
HL-60(TB) = experiment: Antiproliferative activity against human HL-60(TB) cells; format: functional
COLO 201 [1] = experiment: Induction of apoptosis in human COLO201 cells assessed as viable cells at 0.2 uM by Annexin V-FITC and PI staining based flow cytometry analysis ( Rvb = 90%); format: functional; settings: read-out: Activity
EKVX = experiment: Antiproliferative activity against human EKVX cells; format: functional
Hs-578T = experiment: Antiproliferative activity against human Hs-578T cells; format: functional
IGROV-1 = experiment: Antiproliferative activity against human IGROV-1 cells; format: functional
COLO 201 [2] = experiment: Induction of apoptosis in human COLO201 cells assessed as necrotic cells at 0.2 uM by Annexin V-FITC and PI staining based flow cytometry analysis (reference value: 0.7%); format: functional
COLO 201 [3] = experiment: Induction of apoptosis in human COLO201 cells assessed as late apoptotic cells at 0.2 uM by Annexin V-FITC and PI staining based flow cytometry analysis (reference value: 6.2%); format: functional
M14 = experiment: Antiproliferative activity against human M14 cells; format: functional
NCI-H522 = experiment: Antiproliferative activity against human NCI-H522 cells; format: functional
COLO 201 [4] = experiment: Induction of apoptosis in human COLO201 cells assessed as viable cells at 10 uM by Annexin V-FITC and PI staining based flow cytometry analysis (reference value: 90%); format: functional; settings: read-out: Activity
TK-10 = experiment: Antiproliferative activity against human TK-10 cells; format: functional
NCI-H226 = experiment: Antiproliferative activity against human NCI-H226 cells; format: functional
COLO 201 [5] = experiment: Induction of apoptosis in human COLO201 cells assessed as early apoptotic cells at 10 uM by Annexin V-FITC and PI staining based flow cytometry analysis (reference value: 3.2%); format: functional
COLO 201 [6] = experiment: Antiproliferative activity against human COLO201 cells; format: functional
COLO 205 = experiment: Antiproliferative activity against human COLO 205 cells; format: functional
HCT-15 = experiment: Antiproliferative activity against human HCT-15 cells; format: functional
OVCAR-8 = experiment: Antiproliferative activity against human OVCAR-8 cells; format: functional
[7] = Antiproliferative activity against human […] cells; format: functional
HCC 2998 = experiment: Antiproliferative activity against human HCC 2998 cells; format: functional
NCI/ADR-RES = experiment: Antiproliferative activity against human NCI/ADR-RES cells; format: functional
COLO 201 [8] = experiment: Induction of apoptosis in human COLO201 cells assessed as necrotic cells at 10 uM by Annexin V-FITC and PI staining based flow cytometry analysis (reference value: 0.7%); format: functional
BT-549 = experiment: Antiproliferative activity against human BT-549 cells; format: functional
RXF 393 = experiment: Antiproliferative activity against human RXF 393 cells; format: functional
MDA-MB-435 = experiment: Antiproliferative activity against human MDA-MB-435 cells; format: functional
LOX IMVI = experiment: Antiproliferative activity against human LOX IMVI cells; format: functional
U-251 = experiment: Antiproliferative activity against human U-251 cells; format: functional
A549 = experiment: Antiproliferative activity against human A549 cells; format: functional
COLO 201 [9] = experiment: Induction of apoptosis in human COLO201 cells assessed as necrotic cells at 2 uM by Annexin V-FITC and PI staining based flow cytometry analysis (reference value: 0.7%); format: functional
OVCAR-5 = experiment: Antiproliferative activity against human OVCAR-5 cells; format: functional
T47D = experiment: Antiproliferative activity against human T47D cells; format: functional
SW-620 = experiment: Antiproliferative activity against human SW620 cells; format: functional
SR = experiment: Antiproliferative activity against human SR cells; format: functional
CAKI-1 = experiment: Antiproliferative activity against human CAKI-1 cells; format: functional
COLO 201 [10] = experiment: Induction of apoptosis in human COLO201 cells assessed as viable cells at 2 uM by Annexin V-FITC and PI staining based flow cytometry analysis (reference value: 90%); format: functional; settings: read-out: Activity
HOP-62 = experiment: Antiproliferative activity against human HOP-62 cells; format: functional
NCI-H460 = experiment: Antiproliferative activity against human NCI-H460 cells; format: functional
SN12C = experiment: Antiproliferative activity against human SN12C cells; format: functional
HT-29 = experiment: Antiproliferative activity against human HT-29 cells; format: functional
COLO 201 [11] = experiment: Induction of apoptosis in human COLO201 cells assessed as increase in cleaved PARP level by Western blotting analysis; format: functional, cell-based; settings: dose 1-10 µM
DU-145 = experiment: Antiproliferative activity against human DU-145 cells; format: functional
PC-3 = experiment: Antiproliferative activity against human PC-3 cells; format: functional
HCT-116 = experiment: Antiproliferative activity against human HCT-116 cells; format: functional
SK-MEL-2 = experiment: Antiproliferative activity against human SK-MEL-2 cells; format: functional
SK-OV-3 = experiment: Antiproliferative activity against human SK-OV-3 cells; format: functional
SNB-75 = experiment: Antiproliferative activity against human SNB-75 cells; format: functional
NCI-H23 = experiment: Antiproliferative activity against human NCI-H23 cells; format: functional
SF-268 = experiment: Antiproliferative activity against human SF-268 cells; format: functional
MOLT-4 = experiment: Antiproliferative activity against human MOLT-4 cells; format: functional
COLO 201 [12] = experiment: Induction of apoptosis in human COLO201 cells assessed as necrotic cells at 1 uM by Annexin V-FITC and PI staining based flow cytometry analysis (reference value: 0.7%); format: functional
COLO 201 [13] = experiment: Induction of apoptosis in human COLO201 cells assessed as viable cells at 1 uM by Annexin V-FITC and PI staining based flow cytometry analysis (reference value: 90%); format: functional; settings: read-out: Activity
KM12 = experiment: Antiproliferative activity against human KM12 cells; format: functional
COLO 201 [14] = experiment: Induction of apoptosis in human COLO201 cells assessed as early apoptotic cells at 0.2 uM by Annexin V-FITC and PI staining based flow cytometry analysis (reference value: 3.2%); format: functional
SK-MEL-28 = experiment: Antiproliferative activity against human SK-MEL-28 cells; format: functional
COLO 201 [15] = experiment: Induction of apoptosis in human COLO201 cells assessed as early apoptotic cells at 2 uM by Annexin V-FITC and PI staining based flow cytometry analysis (reference value: 3.2%); format: functional
OVCAR-3 = experiment: Antiproliferative activity against human OVCAR-3 cells; format: functional
HOP-92 = experiment: Antiproliferative activity against human HOP-92 cells; format: functional
UO-31 = experiment: Antiproliferative activity against human UO-31 cells; format: functional
MDA-MB-468 = experiment: Antiproliferative activity against human MDA-MB-468 cells; format: functional
K562 = experiment: Antiproliferative activity against human K562 cells; format: functional
A498 = experiment: Antiproliferative activity against human A498 cells; format: functional
SNB-19 = experiment: Antiproliferative activity against human SNB-19 cells; format: functional
MDA-MB-231 = experiment: Antiproliferative activity against human MDA-MB-231 cells; format: functional
Malme-3M = experiment: Antiproliferative activity against human Malme-3M cells; format: functional
786-0 = experiment: Antiproliferative activity against human 786-0 cells; format: functional
COLO 201 [16] = experiment: Induction of apoptosis in human COLO201 cells assessed as early apoptotic cells at 1 uM by Annexin V-FITC and PI staining based flow cytometry analysis (reference value: 3.2%); format: functional
ACHN = experiment: Antiproliferative activity against human ACHN cells; format: functional
[17] = target: T1, Tyrosine-protein kinase Lck (Homo sapiens, UniProt P06239); experiment: Inhibition of recombinant human LCK (64 to 509 residues) incubated for 60 mins in presence of ATP by HTRF method
COLO 201 [18] = experiment: Induction of apoptosis in human COLO201 cells assessed as late apoptotic cells at 1 uM by Annexin V-FITC and PI staining based flow cytometry analysis (reference value: 6.2%); format: functional
[19] = target: T1, Tyrosine-protein kinase Lck; experiment: Inhibition of LCK (unknown origin)
COLO 201 [20] = experiment: Induction of apoptosis in human COLO201 cells assessed as late apoptotic cells at 10 uM by Annexin V-FITC and PI staining based flow cytometry analysis (reference value: 6.2%); format: functional
COLO 201 [21] = experiment: Induction of apoptosis in human COLO201 cells assessed as late apoptotic cells at 2 uM by Annexin V-FITC and PI staining based flow cytometry analysis (reference value: 6.2%); format: functional

T1 sequence (P06239 whole entry, the tested form may be a part): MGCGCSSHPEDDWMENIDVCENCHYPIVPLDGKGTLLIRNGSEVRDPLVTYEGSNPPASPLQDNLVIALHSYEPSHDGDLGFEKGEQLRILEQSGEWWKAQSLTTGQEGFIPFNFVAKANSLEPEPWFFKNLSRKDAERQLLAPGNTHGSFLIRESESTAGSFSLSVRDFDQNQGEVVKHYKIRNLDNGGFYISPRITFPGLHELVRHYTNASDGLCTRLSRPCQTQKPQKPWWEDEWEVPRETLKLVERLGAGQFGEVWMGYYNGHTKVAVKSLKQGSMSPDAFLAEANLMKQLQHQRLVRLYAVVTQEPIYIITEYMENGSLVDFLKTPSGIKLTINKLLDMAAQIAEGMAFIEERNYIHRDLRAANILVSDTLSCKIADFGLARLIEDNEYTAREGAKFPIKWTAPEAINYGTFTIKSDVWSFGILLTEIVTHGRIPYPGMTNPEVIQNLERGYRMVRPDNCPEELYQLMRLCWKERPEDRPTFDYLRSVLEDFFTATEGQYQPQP

Cc1ccc(Nc2ncc3c(n2)N(C)C(=O)N(c2cc(NC(=O)c4ccc([N+](=O)[O-])c(OCC(C)C)c4)ccc2C)C3)cn1
GI50 (MCF7): 8330 nM | GI50 (UACC-257): 670 nM | GI50 (HL-60(TB)): 230 nM | viability at 0.2 µM (COLO 201 [1]): 80.9% | GI50 (EKVX): 980 nM | GI50 (Hs-578T): 280 nM | GI50 (IGROV-1): 210 nM | Activity (COLO 201 [2]): 1.8% | Activity (COLO 201 [3]): 11.7% | GI50 (M14): 160 nM | GI50 (NCI-H522): 300 nM | viability at 10 µM (COLO 201 [4]): 54.4% | GI50 (TK-10): 390 nM | GI50 (NCI-H226): 410 nM | Activity (COLO 201 [5]): 13.3% | GI50 (COLO 201 [6]): 1260 nM | GI50 (COLO 205): 240 nM | GI50 (HCT-15): 410 nM | GI50 (OVCAR-8): 410 nM | GI50 [7]: 480 nM | GI50 (HCC 2998): 1100 nM | GI50 (NCI/ADR-RES): 3530 nM | Activity (COLO 201 [8]): 7.4% | GI50 (BT-549): 1370 nM | GI50 (RXF 393): 94 nM | GI50 (MDA-MB-435): 250 nM | GI50 (LOX IMVI): 200 nM | GI50 (U-251): 550 nM | GI50 (A549): 430 nM | Activity (COLO 201 [9]): 5.2% | GI50 (OVCAR-5): 540 nM | GI50 (T47D): 700 nM | GI50 (SW-620): 520 nM | GI50 (SR): 180 nM | GI50 (CAKI-1): 60 nM | viability at 2 µM (COLO 201 [10]): 57.1% | GI50 (HOP-62): 1130 nM | GI50 (NCI-H460): 430 nM | GI50 (SN12C): 170 nM | GI50 (HT-29): 410 nM | Activity (COLO 201 [11]): Dose-Dependent Effect | GI50 (DU-145): 400 nM | GI50 (PC-3): 790 nM | GI50 (HCT-116): 330 nM | GI50 (SK-MEL-2): 92 nM | GI50 (SK-OV-3): 190 nM | GI50 (SNB-75): 290 nM | GI50 (NCI-H23): 499 nM | GI50 (SF-268): 490 nM | GI50 (MOLT-4): 430 nM | Activity (COLO 201 [12]): 4.6% | viability at 1 µM (COLO 201 [13]): 61.3% | GI50 (KM12): 740 nM | Activity (COLO 201 [14]): 5.6% | GI50 (SK-MEL-28): 240 nM | Activity (COLO 201 [15]): 17% | GI50 (OVCAR-3): 1090 nM | GI50 (HOP-92): 90 nM | GI50 (UO-31): 270 nM | GI50 (MDA-MB-468): 380 nM | GI50 (K562): 10 nM | GI50 (A498): 220 nM | GI50 (SNB-19): 3920 nM | GI50 (MDA-MB-231): 130 nM | GI50 (Malme-3M): 200 nM | GI50 (786-0): 450 nM | Activity (COLO 201 [16]): 13.9% | GI50 (ACHN): 150 nM

COc1cc(-c2nn(C3CCC(N4CCN(C(C)=O)CC4)CC3)c3ncnc(N)c23)ccc1NC(=O)c1cc2ccccc2n1C (stereo unspecified)
viability at 0.2 µM (COLO 201 [1]): 92.6% | IC50 [17]: 147 nM | Activity (COLO 201 [2]): 0.6% | Activity (COLO 201 [3]): 4.3% | viability at 10 µM (COLO 201 [4]): 26.6% | Activity (COLO 201 [18]): 6.6% | Activity (COLO 201 [5]): 16.9% | Activity (COLO 201 [8]): 3.8% | IC50 [19]: 147 nM | Activity (COLO 201 [9]): 1.8% | viability at 2 µM (COLO 201 [10]): 82.6% | Activity (COLO 201 [20]): 52.7% | Activity (COLO 201 [12]): 1.2% | viability at 1 µM (COLO 201 [13]): 88.7% | Activity (COLO 201 [21]): 8.5% | Activity (COLO 201 [14]): 2.5% | Activity (COLO 201 [15]): 7.1% | Activity (COLO 201 [16]): 3.4%
